The values that follow come from patent publication US20050282870A1, “Peripherally-acting vasodilators” (priority 2004, published 2005).

In the assay the test system is forearm and dorsum of the foot skin. Kind of assay: Skin vasodilatory response to topical application of 1% methyl nicotinate, Laser Doppler Perfusion Imaging. The conditions noted are these: for maximal vasodilatory response: compared with acetylcholine and sodium nitroprusside. Type of assay: in vivo, human. How it is done: Vasodilation induced by topical application of methyl nicotinate was evaluated and compared with the vasodilatory response to acetylcholine and sodium nitroprusside in healthy subjects and diabetic neuropathic patients. Ten diabetic patients with peripheral neuropathy and 10 age- and sex-matched healthy control subjects were enrolled. The vasodilatory response to topical application of 1% methyl nicotinate and a placebo emulsion at the forearm and dorsum of the foot skin at 4, 15, 30, 60 and 120 min was measured using Laser Doppler Perfusion Imaging. The vasodilatory response to iontophoresis of 1% acetylcholine and 1% sodium nitroprusside solutions was also evaluated.

Regarding `COC(=O)c1cccnc1` [methyl nicotinate], for the setting “control group (healthy subjects), foot, topical 1%, compared to acetylcholine and sodium nitroprusside responses”, the vasodilatory response entry was “higher”. Besides, under “control group (healthy subjects), forearm, topical 1%”, the maximal vasodilatory response entry was “similar”. Besides, the maximal vasodilatory response entry (diabetic patients with peripheral neuropathy, forearm and foot, topical 1%) was “similar”. Moreover, for the setting “topical 1% methyl nicotinate”, the “time after application at which vasodilation was present” value amounted to 5 min, the “time of decline of vasodilation to pre-application levels” value amounted to 120 min and the “time of peak vasodilation” value was in the range of 15 to 30 min.
